What was measured:
[1] = cited from earlier work
S. cerevisiae = assay type: cell-based, Saccharomyces cerevisiae
Text: The third primary library (PL3) mediates TAN-1612 high-titer toxicity by merging three complimentary routes. This example (i) optimizes performance of an efflux pump in order to reduce intracellular TAN-1612 concentrations, (ii) screens a large number of wild yeast isolates for higher TAN-1612 tolerance and use them for background crossing and (iii) evolves the v2.0 producer for TAN-1612 resistance through random mutagenesis and selection. In preliminary results, TAN-1612 and anhydrotetracycline (Atc) growth inhibition in concentrations of 10 mg/L was confirmed. In order to increase TAN-1612 tolerance the v2.0 producer co-expresses the supposed efflux pump […]_48051 (GenBank: EHA19824.1) that was obtained by genome-mining from the natural producer strain A. niger. […] This can improve pump performance via gene titration and genome-mines other efflux pumps. PL3 further includes of a large number (>50) of wild S. cerevisiae isolates that are screened for higher tolerance to TAN-1612 using a growth-based microtiter plate assay.

[2] = test system: Saccharomyces cerevisiae BJ5464; assay: Toxicity assay of TAN-1612 in Saccharomyces cerevisiae; assay type: cell-based
Description: The toxicity assay of TAN-1612 in Saccharomyces cerevisiae. BJ5464 strains were cultured in complete synthetic medium in presence of different tetracycline or its analogs. […] (FIG. 42B) BJ5464 strains were cultured in YPD: non-defined medium in presence of different tetracycline or its analogs. (FIG. 42A). […] (FIG. 43).

[3] = test system: cofactor F420 reductase from Methanobacterium thermoautotrophicum; conditions: as substrate of the F420 reductase; cited from earlier work

SMILES | Relative rate of acid hydrolysis (to OMe) [1] | growth inhibition in concentrations of (S. cerevisiae) [mg/L] | other results
OCC1OC(OC23CC4CC(CC(C4)C2)C3)C(O)C(O)C1O (stereo not shown) | 48.5 | – | –
COc1cc(O)c2c(O)c3c(cc2c1)CC1(O)CC(=O)C(C(C)=O)=C(O)C1(O)C3=O (stereo not shown) [TAN-1612] | – | 10 | toxicity at the range of ([2]; BJ5464 cultured in YPD non-defined medium): 50 to 100 mg/L; toxicity at the range of ([2]; BJ5464 cultured in complete synthetic medium): 1 to 10 mg/L
OCC1OC(OC(c2ccccc2)c2ccccc2)C(O)C(O)C1O (stereo not shown) | 25.6 | – | –
O=c1nc2n(C[C@H](O)[C@H](O)[C@H](O)CO)c3cc(O)ccc3cc-2c(=O)[nH]1 [Fo, 7,8-didemethyl-8-hydroxy-5-deazariboflavin] | – | – | Km [3]: 34 µM
Cc1c2c(c(O)c3c(O)cccc13)C(=O)[C@]1(O)C(=O)C(C(N)=O)=C(O)[C@@H](N(C)C)[C@@H]1C2 [anhydrotetracycline, reference compound] | – | 10 | –

Reference: patent US20230000934A1, “METHODS FOR ENGINEERING THERAPEUTICS AND USES THEREOF” (The Trustees of Columbia University In The City of New York, priority 2019, published 2023)
